In patent US20230219957A1, “SMALL MOLECULE CB002-ANALOGES RESTORE THE P53 PATHWAY AND TARGET S-PHASE CHECKPOINT” (Brown University, priority 2020, published 2023):

Experiments:
SW480 cells [1] = assay: Propidium iodide Sub-G1 apoptosis analysis; assay type: cell-based, human; conditions: compared to vehicle control, forty-eight hours
Description: (§1) Apoptosis assay. Apoptotic cells were quantified by sub-G1 analysis. Cells were seeded at a density of 2.5×10^5to 5×10^5in a 6-well plate and treated forty-eight to seventy-two hours. After treatment, adherent cells were trypsinized and collected along with floating cells, washed with phosphate-buffered saline, and fixed in 70% ethanol. Cells were then incubated in a phosphate-citric acid buffer (0.2M Na2HPO4+0.1M citric acid, pH 7.8) at room temperature for five minutes, spun down, and resuspended for staining with 50 μg/mL propidium iodide (PI) in the presence of 250 μg/mL pancreatic ribonuclease (RNase A). Sub-G1 analyses were performed using an Epics Elite Epics flow cytometer (Coulter-Beckman).
Propidium iodide and BrdU flow cytometry assay. Cells were seeded at a density of 5×10^5 in a 6-well plate and treated for forty-eight to seventy-two hours. After treatment, floating cells were collected, and adherent cells were trypsinized, pelleted, washed with phosphate-buffered saline, and fixed in 70% ethanol overnight. For propidium iodide (PI) based Sub-G1 apoptosis analysis, cells were spun down after fixation and resuspended in phosphate-citric acid buffer (0.2M Na2HPO4+0.1M Citric Acid, pH 7.8) at room temperature for five minutes. […] Samples were analyzed on an Epics Elite Epics flow cytometer (Coulter-Beckman).

[2] = test system: normal human WI38 lung fibroblast cells; assay: Propidium iodide Sub-G1 analysis in normal cells; assay type: cell-based; conditions: forty-eight hours
Description: as §1, with “(Coulter-Beckman). Propidium iodide and BrdU flow cytometry assay. Cells were seeded at a density of 5×10^5 in a 6-well plate and treated for forty-eight to seventy-two hours. After treatment, floating cells were collected, and adherent cells were trypsinized, pelleted, washed with phosphate-buffered saline, and fixed in 70% ethanol overnight. For propidium iodide (PI) based Sub-G1 apoptosis analysis, cells were spun down after fixation and resuspended in phosphate-citric acid buffer (0.2M Na2HPO4+0.1M Citric Acid, pH 7.8) at room temperature for five minutes. […] Samples were analyzed on an Epics Elite Epics flow cytometer (Coulter-Beckman).” for “(Coulter-Beckman).”

SW480 cells [3] = assay: Clonogenic (colony formation) assay; assay type: cell-based, human; conditions: SW480, versus CB002
Description: Colony formation assay. Cells were seeded in 6-well plates at a density of 500 cells per well. Cells were treated with CB002 small molecules for twenty-four hours. Then, cells were cultured in complete drug-free media for fifteen days. During the fifteen days, the media was changed every two-three days. At the end of the two weeks, the media was removed. Wells were washed twice with Dulbecco's phosphate-buffered saline (PBS). The colonies were fixed and stained with 10% methanol and 0.25% crystal violet (Sigma-Aldrich, St. Louis, Mo., USA) for thirty minutes. Wells were then carefully washed with distilled, deionized water and allowed to dry.

Cn1c(=O)c2[nH]c(Nc3cccc(C(F)(F)F)c3)nc2n(C)c1=O [CB002-analog #4]
Sub-G1 content (SW480 cells [1]): significant increase of Sub-G1 content | sub-G1 in normal cells [2]: does not increase sub-G1 | cytotoxicity by clonogenic assay (SW480 cells [3]): more cytotoxic in vitro than CB002
